In PubChem BioAssay AID330 (DTP/NCI, 2004):
Several values for one entry are separate records, joined by “and”; a condition that tells them apart may be missing. Identical values can stand only once. Toxic doses and inconclusive results are not listed. The calls were made as follows: active = survival T/C of 150% or more; inactive = T/C below 125% in these data.

Tested on: P388 leukemia ip, CD2F1 mice, survival T/C
Test: NCI In Vivo Anticancer Drug Screen. Data for tumor model P388 Leukemia (intraperitoneal) in CD2F1 (CDF1) mice
Conditions: endpoint: median survival time, higher = longer survival
How it was run: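 Mice carrying the transplanted tumor received test compound or vehicle. Survival was recorded in each group, and the value is the treated-group measurement divided by that of the vehicle-treated control group.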

[1] = dose: 25.0 mg/kg/injection, schedule: Q01DX009 (ip), vehicle: water
[2] = dose: 50.0 mg/kg/injection, schedule: Q01DX009 (ip), vehicle: water
[3] = dose: 50.0 mg/kg/injection, schedule: Q01DX005 (ip), vehicle: saline with Tween-80
[4] = dose: 100.0 mg/kg/injection, schedule: Q01DX005 (ip), vehicle: saline with Tween-80
[5] = dose: 200.0 mg/kg/injection, schedule: Q01DX005 (ip), vehicle: saline with Tween-80

Measured: T/C

COc1ccc(-[n+]2noc(N)n2)cc1
inactive: dose: 3.13 mg/kg/injection, schedule: Q01DX009 (ip), vehicle: water 99 % of control | dose: 6.25 mg/kg/injection, schedule: Q01DX009 (ip), vehicle: water 102 % of control | dose: 12.5 mg/kg/injection, schedule: Q01DX009 (ip), vehicle: water 108 % of control | [1] 116 % of control | [2] 120 % of control

COC(=O)C1=C(C(=O)OC)C2C=CC1C(=O)N2/C=C/c1ccccc1 (centres undefined)
inactive: dose: 100.0 mg/kg/injection, schedule: Q04DX003 (ip), vehicle: saline with Tween-80 102 % of control | dose: 400.0 mg/kg/injection, schedule: Q04DX003 (ip), vehicle: saline with Tween-80 117 % of control

C=CCC1(CC=C)CC1OCC (centres undefined)
inactive: dose: 50.0 mg/kg/injection, schedule: Q01DX005 (ip), vehicle: saline 98 % of control | dose: 100.0 mg/kg/injection, schedule: Q01DX005 (ip), vehicle: saline 100 % of control | dose: 200.0 mg/kg/injection, schedule: Q01DX005 (ip), vehicle: saline 100 % of control

CC1=C(O)NC(CC(=O)C(O)CO)=CN1 (centres undefined)
inactive: [1] 101 % of control | [2] 100 % of control | dose: 100.0 mg/kg/injection, schedule: Q01DX009 (ip), vehicle: water 95 % of control | dose: 200.0 mg/kg/injection, schedule: Q01DX009 (ip), vehicle: water 95 % of control | dose: 400.0 mg/kg/injection, schedule: Q01DX009 (ip), vehicle: water 111 % of control | dose: 800.0 mg/kg/injection, schedule: Q01DX009 (ip), vehicle: water 117 % of control

COc1ccc(/C=C/C(C)=N/NC(N)=S)cc1
inactive: dose: 6.0 mg/kg/injection, schedule: Q01DX005 (ip), vehicle: Klucel + Tween-80 113 % of control | dose: 12.0 mg/kg/injection, schedule: Q01DX005 (ip), vehicle: Klucel + Tween-80 104 % of control

COc1cc(C2c3cc(OS(=O)(=O)c4ccc(C)cc4)c(OC)cc3CC3C(=O)OCC32)ccc1OS(=O)(=O)c1ccc(C)cc1 (centres undefined)
inactive: [3] 91 % of control and 92 % of control | [4] 91 % of control | [5] 91 % of control

Cc1nc(N)nc(Nc2ccccc2)n1
inactive: dose: 60.0 mg/kg/injection, schedule: Q01DX005 (ip), vehicle: saline with Tween-80 103 % of control | dose: 120.0 mg/kg/injection, schedule: Q01DX005 (ip), vehicle: saline with Tween-80 99 % of control | dose: 240.0 mg/kg/injection, schedule: Q01DX005 (ip), vehicle: saline with Tween-80 101 % of control

C=Cn1c([N+](=O)[O-])cnc1/C=C/c1ccc(C(=O)OCCN2CCOCC2)cc1
inactive: dose: 25.0 mg/kg/injection, schedule: Q04DX002 (ip), vehicle: saline with Tween-80 101 % of control | dose: 50.0 mg/kg/injection, schedule: Q04DX002 (ip), vehicle: saline with Tween-80 101 % of control | dose: 100.0 mg/kg/injection, schedule: Q04DX002 (ip), vehicle: saline with Tween-80 103 % of control and 90 % of control

COC(=O)c1ccccc1N1C(=O)C=CC1=O
inactive: dose: 6.25 mg/kg/injection, schedule: Q04DX003 (ip), vehicle: saline with Tween-80 92 % of control | dose: 12.5 mg/kg/injection, schedule: Q04DX003 (ip), vehicle: saline with Tween-80 92 % of control

[N-]=[N+]=Nc1ccc(C(=O)ON2C(=O)CCC2=O)cc1
inactive: [3] 97 % of control | [4] 105 % of control | [5] 119 % of control

CCS[C@@H](C(O)C(O)C(O)C(O)CO)n1cnc2c(Cl)ncnc21 (some centres undefined)
inactive: [3] 98 % of control | [4] 102 % of control | [5] 96 % of control

CC(=O)Oc1ccc2ccc3nonc3c2c1
inactive: [3] 99 % of control | [4] 99 % of control | [5] 94 % of control

CC1COCCOCCOCC(C)OC(=O)COCC(=O)O1 (centres undefined)
inactive: dose: 50.0 mg/kg/injection, schedule: Q01DX009 (ip), vehicle: Klucel (hydroxypropylcellulose) (HPC) 99 % of control | dose: 100.0 mg/kg/injection, schedule: Q01DX009 (ip), vehicle: Klucel (hydroxypropylcellulose) (HPC) 101 % of control | dose: 200.0 mg/kg/injection, schedule: Q01DX009 (ip), vehicle: Klucel (hydroxypropylcellulose) (HPC) 105 % of control

Cc1ccc(S(=O)(=O)OC2CCCCC2c2ccccc2)cc1 (centres undefined)
inactive: dose: 6.25 mg/kg/injection, schedule: Q01DX001 (ip), vehicle: Klucel (hydroxypropylcellulose) (HPC) 102 % of control | dose: 12.5 mg/kg/injection, schedule: Q01DX001 (ip), vehicle: Klucel (hydroxypropylcellulose) (HPC) 116 % of control and 98 % of control | dose: 25.0 mg/kg/injection, schedule: Q01DX001 (ip), vehicle: Klucel (hydroxypropylcellulose) (HPC) 102 % of control and 90 % of control

c1cc[c]([GeH][c]2ccccc2)cc1.c1cc[c]([GeH][c]2ccccc2)cc1
inactive: dose: 12.5 mg/kg/injection, schedule: Q01DX005 (ip), vehicle: Klucel (hydroxypropylcellulose) (HPC) 101 % of control | dose: 25.0 mg/kg/injection, schedule: Q01DX005 (ip), vehicle: Klucel (hydroxypropylcellulose) (HPC) 97 % of control | dose: 50.0 mg/kg/injection, schedule: Q01DX005 (ip), vehicle: Klucel (hydroxypropylcellulose) (HPC) 100 % of control and 101 % of control | dose: 100.0 mg/kg/injection, schedule: Q01DX005 (ip), vehicle: Klucel (hydroxypropylcellulose) (HPC) 99 % of control | dose: 200.0 mg/kg/injection, schedule: Q01DX005 (ip), vehicle: Klucel (hydroxypropylcellulose) (HPC) 100 % of control

COc1cccc2c1C(=O)c1c(O)c3c(c(O)c1C2=O)C(OC)C(O)(C(C)=O)CC3OC1CC(N)C(O)C(C)O1 (centres undefined)
inactive: dose: 3.13 mg/kg/injection, schedule: Q04DX003 (ip), vehicle: water 100 % of control | dose: 6.25 mg/kg/injection, schedule: Q04DX003 (ip), vehicle: water 100 % of control | dose: 12.5 mg/kg/injection, schedule: Q04DX003 (ip), vehicle: water 108 % of control | dose: 25.0 mg/kg/injection, schedule: Q04DX003 (ip), vehicle: water 115 % of control | dose: 50.0 mg/kg/injection, schedule: Q04DX003 (ip), vehicle: water 115 % of control

C=C1C(=O)C23C(OC(=O)c4ccc(Br)cc4)C1CCC2C12COC3(O)C(O)C1C(C)(C)CCC2O (centres undefined)
inactive: dose: 3.75 mg/kg/injection, schedule: Q01DX009 (ip), vehicle: saline with Tween-80 105 % of control and 106 % of control | dose: 7.5 mg/kg/injection, schedule: Q01DX009 (ip), vehicle: saline with Tween-80 105 % of control and 111 % of control | dose: 15.0 mg/kg/injection, schedule: Q01DX009 (ip), vehicle: saline with Tween-80 111 % of control and 120 % of control | dose: 30.0 mg/kg/injection, schedule: Q01DX009 (ip), vehicle: saline with Tween-80 119 % of control

O=C1C2=C(Nc3cc(Cl)ccc3N2)OC1c1ccc(C2OC3=C(Nc4ccc(Cl)cc4N3)C2=O)cc1 (centres undefined)
inactive: dose: 60.0 mg/kg/injection, schedule: Q01DX005 (ip), vehicle: Klucel (hydroxypropylcellulose) (HPC) 104 % of control | dose: 120.0 mg/kg/injection, schedule: Q01DX005 (ip), vehicle: Klucel (hydroxypropylcellulose) (HPC) 111 % of control | dose: 240.0 mg/kg/injection, schedule: Q01DX005 (ip), vehicle: Klucel (hydroxypropylcellulose) (HPC) 105 % of control

C=C(C)[C@@H]1CC[C@@H]2C(=CC[C@]3(C)C([C@H](C)CC/C=C(/C)C(=O)O)CC[C@@]23C)[C@@]1(C)CCC(=O)O (some centres undefined)
inactive: dose: 1.41 mg/kg/injection, schedule: Q01DX009 (ip), vehicle: saline + alcohol 88 % of control | dose: 2.81 mg/kg/injection, schedule: Q01DX009 (ip), vehicle: saline + alcohol 93 % of control | dose: 5.63 mg/kg/injection, schedule: Q01DX009 (ip), vehicle: saline + alcohol 99 % of control | dose: 11.25 mg/kg/injection, schedule: Q01DX009 (ip), vehicle: saline + alcohol 99 % of control | dose: 90.0 mg/kg/injection, schedule: Q01DX009 (ip), vehicle: saline + alcohol 102 % of control

Nc1ccc(S(=O)(=O)Nc2ccc3oc(=O)[nH]c3c2)cc1
inactive: dose: 50.0 mg/kg/injection, schedule: Q04DX002 (ip), vehicle: Klucel (hydroxypropylcellulose) (HPC) 101 % of control | dose: 100.0 mg/kg/injection, schedule: Q04DX002 (ip), vehicle: Klucel (hydroxypropylcellulose) (HPC) 104 % of control | dose: 200.0 mg/kg/injection, schedule: Q04DX002 (ip), vehicle: Klucel (hydroxypropylcellulose) (HPC) 104 % of control
